Measured values: patent publication US12590966B2, “Method for treating cancer” (THE CHILDREN'S MEDICAL CENTER CORPORATION, priority 2019, dated 2026)

Columns and labels:
[1] = tested on: normal human CD34+ hematopoietic progenitors; assay: Survival under essential amino acid starvation; assay type: cell-based
[2] = tested on: CCD841 cells derived from normal human intestinal epithelium; assay: Survival under essential amino acid starvation; assay type: cell-based
Jurkat cells [3] = assay: Proteinase K protection assay of GSK3α; assay type: cell-based, human; details: Jurkat cells permeabilized with digitonin, Western blot
Protocol: Jurkat cells were treated with vehicle, asparaginase (×48 hrs) to induce formation of GSK3α bodies, or Wnt3A to induce GSK3 sequestration in membrane-bound multivesicular bodies (Taelman et al., 2010). Cells were permeabilized, and treated with vehicle or proteinase K to digest free cytoplasmic proteins. Triton is a control that dissolves all membranes.
It was then determined whether GSK3α bodies are membraneless using the proteinase K protection assay. Jurkat cells were treated with vehicle or asparaginase to trigger GSK3α body formation. As a positive control, treatment with Wnt3A was included, which triggers sequestration of GSK3 inside membrane-bound multivesicular endosomes (19). Following cytoplasmic membrane permeabilization with digitonin, cells were treated with proteinase K, and GSK3α protein levels were assessed by Western blot analysis. […] These findings indicate that GSK3α bodies are membraneless.

Jurkat cells [4] = assay: GSK3α body (puncta) formation by confocal immunofluorescence microscopy; assay type: cell-based, human; details: for Formation of GSK3α puncta on addition of amino acid: asparagine depleted cell
Protocol: (§1) FIGS. 4A-4D show asparagine starvation induces phase separation of GSK3α into cytoplasmic bodies (or puncta), but not GSK3b. (FIG. 4A) Confocal immunofluorescence microscopy for GSK3α or the nuclear marker DAPI, in Jurkat cells treated with vehicle or asparaginase (100 U/L) for 48 hours. (FIG. 4B) Confocal immunofluorescence microscopy for GSK3β or the nuclear marker DAPI, in Jurkat cells treated with vehicle or asparaginase (100 U/L) for 48 hours. (FIG. 4C) Number of puncta per 50 cells. (FIG. 4D) Formation of GSK3α bodies is selective to asparaginase, and is not induced by other cellular stressors such as other chemotherapeutics or heat shock. ****, p<0.0001. ns (not significant), p>0.05.
FIGS. 6A and 6B show GSK3α bodies function in the protein ubiquitination-proteasomal degradation pathway in response to asparagine starvation. (FIG. 6A) Jurkat T-ALL cells were treated with vehicle, asparaginase, the GSK3α inhibitor BRD0705, or the combination of asparaginase and BRD0705 (combo). Immunofluorescence microscopy was then performed for GSK3α, K48-linked ubiquitin chains (which mark proteins for proteasomal degradation), or the nuclear marker DAPI. Note that GSK3a can still undergo translocation into GSK3a bodies even if its enzymatic activity is inhibited, but the ability of GSK3a bodies to ubiquitinate proteins is completely dependent on the enzymatic activity of GSK3α. (FIG. 6B) Quantification of the immunofluorescence in 50 cells from each condition. Coloc refers to co-localization of both GSK3α and ubiquitin (ub), as determined by yellow color on the merged confocal image. ****, p<0.0001. ns (not significant), p>0.05.
(§2) To test whether GSK3α undergoes spatial sequestration in response to asparaginase, we applied immunofluorescence using paralog-selective antibodies (FIG. S4).

Jurkat cells [5] = assay: GSK3β localization by confocal immunofluorescence microscopy; assay type: cell-based, human; details: asparaginase 100 U/L for 48 hours
Protocol: as §1, §2

Jurkat T-ALL cells = assay: Co-localization of K48-linked ubiquitin with GSK3α bodies by immunofluorescence; assay type: cell-based, human; details: combination with asparaginase
Protocol: (FIG. 6A) Jurkat T-ALL cells were treated with vehicle, asparaginase, the GSK3α inhibitor BRD0705, or the combination of asparaginase and BRD0705 (combo). Immunofluorescence microscopy was then performed for GSK3α, K48-linked ubiquitin chains (which mark proteins for proteasomal degradation), or the nuclear marker DAPI. […] (FIG. 6B) Quantification of the immunofluorescence in 50 cells from each condition. Coloc refers to co-localization of both GSK3α and ubiquitin (ub), as determined by yellow color on the merged confocal image. ****, p<0.0001. ns (not significant), p>0.05.

Jurkat cells [6] = tested on: Jurkat cells
Source text: It was then sought to determine whether GSK3α promotes survival in response to starvation of these amino acids. […] It was then asked whether GSK3α promotes the survival of normal cells in response to essential amino acid starvation, using normal human CD34+ hematopoietic progenitors or CCD841 cells derived from normal human intestinal epithelium (38).

## CC[C@]1(c2ccccc2)C2=C(CC(C)(C)CC2=O)Nc2[nH]ncc21 [BRD5648]
[1]
  Survival under essential amino acid starvation: had no effect
[2]
  Survival under essential amino acid starvation: had no effect

## asparaginase
Jurkat cells [3]
  Accessibility of GSK3α to proteinase K digestion: remained accessible to proteinase K digestion
Jurkat cells [4]; Jurkat cells, asparaginase 100 U/L for 48 hours
  GSK3α body formation (condensation into cytoplasmic puncta) induced by treatment: triggered its condensation into distinct cytoplasmic puncta
Jurkat cells [5]
  GSK3β localization after treatment: remained broadly distributed regardless of asparaginase therapy

## NC(=O)CC[C@H](N)C(=O)O [L-Glut, glutamine]
Jurkat cells [4]
  Formation of GSK3α puncta on addition of amino acid: does not

## NC(=O)C[C@H](N)C(=O)O [L-Asn, asparagine]
Jurkat cells [4]
  Formation of GSK3α puncta on addition of amino acid: inhibits the formation of GSK3α puncta

## CC[C@@]1(c2ccccc2)C2=C(CC(C)(C)CC2=O)Nc2[nH]ncc21 [BRD0705]
Jurkat T-ALL cells
  Accumulation of ubiquitin in GSK3α bodies: did prevent accumulation of ubiquitin in GSK3α bodies
Jurkat cells [4]; Jurkat T-ALL cells, combination with asparaginase
  Effect on GSK3α biomolecular condensation in response to asparaginase: did not block the ability of GSK3α to undergo biomolecular condensation
Jurkat cells [6]; leucine-deficient medium
  Viability in leucine-deficient medium: impaired viability
Jurkat cells [6]; valine-deficient medium
  Viability in valine-deficient medium: impaired viability
[1]
  Survival under essential amino acid starvation: impaired survival
[2]
  Survival under essential amino acid starvation: impaired survival

B1: Wnt3A: positive control that triggers sequestration of GSK3 inside membrane-bound multivesicular endosomes (protein, UniProt P56704 19-352, looked up)
Protein Wnt-3a: SYPIWWSLAVGPQYSSLGSQPILCASIPGLVPKQLRFCRNYVEIMPSVAEGIKIGIQECQHQFRGRRWNCTTVHDSLAIFGPVLDKATRESAFVHAIASAGVAFAVTRSCAEGTAAICGCSSRHQGSPGKGWKWGGCSEDIEFGGMVSREFADARENRPDARSAMNRHNNEAGRQAIASHMHLKCKCHGLSGSCEVKTCWWSQPDFRAIGDFLKDKYDSASEMVVEKHRESRGWVETLRPRYTYFKVPTERDLVYYEASPNFCEPNPETGSFGTRDRTCNVSSHGIDGCDLLCCGRGHNARAERRREKCRCVFHWCCYVSCQECTRVYDVHTCK
Jurkat cells [3]
  Accessibility of GSK3α to proteinase K digestion: protected from protease digestion
